# Data taken from patent US5294634A, “Osteogenesis promoter” (Zeria Pharmaceutical Co., Ltd., priority 1989, dated 1994).
# Experiments:
# [1] = tested on: alkaline phosphatase; assay: Alkaline phosphatase activity in femoral diaphysis of young rats (Test Example 1); type: in vivo, young Wistar rats; details: oral, 5.5 mg/kg body weight in terms of zinc, once a day for 3 days; 24 h after last dose; average ± standard error; control 1599.6 ± 74.5
# Description: (§1) The osteogenesis-stimulating action of the zinc complex of L-carnosine was confirmed by the calcium content, zinc content, alkaline phosphatase activity and DNA content in the femoral diaphysis of young rats used. Zinc sulfate was used as a comparative compound.
# (§2) Young Wistar rats were used regarding five rats as one group. […] A control group was orally given with a solvent alone.
# The agent to be tested was administered for 3 days once a day in an amount corresponding to 5.5 mg/kg body weight in terms of zinc. Upon elapsed time of 24 hours after the last dose, the rats were sacrificed and the femoral regions were taken out of each rat under light ether anesthesia. […]
# The femoral diaphysis tissue was immersed into 3 ml of ice-cold 6.5 mM barbital buffer solution (pH: 7.4) and then cut into pieces to uniformly grind them by a Potter-Blvehjem homogenizer equipped with a Teflon pestle. […] The alkaline phosphatase activity was determined in accordance with the Wallter-Schutt procedure [Bergmeyer HU (ed), Methods of enzymatic analysis, Vol. 1-2, Academic Press, New York, pp. 856-860 (1965)]. […] The concentration of protein was measured in accordance with the method by Lowry et al. [J. Biol. Chem., 193, 265-273 (1951)].
# (§3) The data were shown as average value±standard error. The significant difference was determined using the Student's t-test.
# [2] = tested on: femoral diaphysis; assay: Calcium content in femoral diaphysis of young rats (Test Example 1, osteogenesis-stimulating action); type: in vivo, young Wistar rats; details: oral, 5.5 mg/kg body weight in terms of zinc, once a day for 3 days; 24 h after last dose; average ± standard error; control 386.5 ± 6.5
# Description: as §1, §2
# (§4) The agent to be tested was administered for 3 days once a day in an amount corresponding to 5.5 mg/kg body weight in terms of zinc. Upon elapsed time of 24 hours after the last dose, the rats were sacrificed and the femoral regions were taken out of each rat under light ether anesthesia. Soft tissues and bone marrow were removed from the femoral region. The diaphysis and epiphysis (including metaphyseal tissues) were separated from each other to form fragments of the femoral diaphysis.
# The femoral diaphysis tissue was ashed for 24 hours at 640° C. to weigh the resulting ash. Thereafter, the ash was dissolved in 6N hydrochloric acid to measure its calcium content by atomic absorption spectrophotometry. The calcium content in the bone was expressed in terms of mg per g of the bone ash.
# as §3
# [3] = tested on: femoral diaphysis; assay: DNA content in femoral diaphysis of young rats (Test Example 1); type: in vivo, young Wistar rats; details: oral, 5.5 mg/kg body weight in terms of zinc; for change in DNA content in the femoral diaphysis: 3 days, in words; for DNA: once a day for 3 days, 24 h after last dose, average ± standard error, control 1.450 ± 0.020
# Description: as §1, §2, §4
# A small fragment of the fempral diaphysis was subjected to homogenization for bone tissue, followed by its shaking together with 4.0 ml of 0.1N sodium hydroxide solution cooled with ice. After the thus-treated homogenate was subjected to alkali extraction, the extract was centrifuged at 10,000×g for 5 minutes. The thus-obtained supernatant liquid was used for the measurement in accordance with the Ceriotti method [J. Biol. Chem., 214, 39-77 (1955)]. The DNA content was expressed in terms of the total DNA content (mg) per gram of a wet bone.
# as §3
# [4] = tested on: femoral diaphysis; assay: Zinc content in femoral diaphysis of young rats (Test Example 1); type: in vivo, young Wistar rats; details: oral, 5.5 mg/kg body weight in terms of zinc, once a day for 3 days; 24 h after last dose; average ± standard error; control 156.9 ± 7.7
# Description: as §1, §2, §4
# A fragment of the femoral diaphysis was digested with nitric acid [Biochem. Pharmacol., 36, 4007-4012 (1986)] to measure the content of zinc by atomic adsorption spectrophotometry. The zinc content was expressed in terms of micrograms of zinc per gram of a wet bone.
# as §3
# [5] = tested on: femoral diaphysis; assay: Osteogenesis-stimulating action (overall, Test Example 1); type: in vivo, young Wistar rats; details: for change in zinc content, calcium content and alkaline phosphatase activity in the femoral diaphysis: oral, 5.5 mg/kg body weight in terms of zinc, 3 days, in words
# Description: as §1, §2, §4
# [6] = tested on: rats; assay: Oral acute toxicity (Test Example 2); type: in vivo, Wister male and female rats; details: 10 g/kg body weight, observation for 7 days, male and female rats
# From the text: Using Wister male and female rats of 150-200 g by weight regarding 10 rats as respective groups, the crystalline zinc complex of L-carnosine in a dose of 10 g/kg body weight) was orally administered to each rat.
# [7] = in vivo; cited from earlier work
SMILES,Alkaline phosphatase [1] [μmol/min/mg protein],Calcium content [2] [mg/g bone ash],change in DNA content in the femoral diaphysis [3],DNA [3] [mg/g wet bone],Zinc [4] [μg/g wet bone],"change in zinc content, calcium content and alkaline phosphatase activity in the femoral diaphysis [5]",osteogenesis-stimulating action compared with zinc sulfate ([5]; same amounts (5.5 mg/kg body weight) in terms of zinc),dead cases [6],side effects [7]
"NCCC(=O)[N-][C@@H](Cc1c[nH]cn1)C(=O)[O-].[Zn+2] [L-carnosine zinc complex, Crystalline Zinc Complex of L-Carnosine]",1963.4 ± 118.3,458.1 ± 8.7,increased,2.931 ± 0.100,235.0 ± 9.1,increased,stronger osteogenesis-stimulating action than zinc sulfate,dead cases were not recognized,–
"O=S(=O)([O-])[O-].[Zn+2] [Zinc sulfate, zinc sulfate, reference compound]",2580.5 ± 80.3,405.8 ± 4.5,a significant change was not produced,1.510 ± 0.050,206.7 ± 9.8,increased,–,–,"vomiting, nausea and diarrhea"
